Measurements as given in ChEMBL document CHEMBL2440070, “Synthesis and evaluation of novel azetidine analogs as potent inhibitors of vesicular [3H]dopamine uptake” (Bioorg Med Chem, 2013).

Target: Synaptic vesicular amine transporter (Rattus norvegicus, UniProt Q01827)
Assay: Inhibition of VMAT2-mediated [3H]-dopamine uptake in rat striata isolated synaptic vesicles by liquid scintillation spectroscopy

Sequence of Synaptic vesicular amine transporter (Q01827 whole entry): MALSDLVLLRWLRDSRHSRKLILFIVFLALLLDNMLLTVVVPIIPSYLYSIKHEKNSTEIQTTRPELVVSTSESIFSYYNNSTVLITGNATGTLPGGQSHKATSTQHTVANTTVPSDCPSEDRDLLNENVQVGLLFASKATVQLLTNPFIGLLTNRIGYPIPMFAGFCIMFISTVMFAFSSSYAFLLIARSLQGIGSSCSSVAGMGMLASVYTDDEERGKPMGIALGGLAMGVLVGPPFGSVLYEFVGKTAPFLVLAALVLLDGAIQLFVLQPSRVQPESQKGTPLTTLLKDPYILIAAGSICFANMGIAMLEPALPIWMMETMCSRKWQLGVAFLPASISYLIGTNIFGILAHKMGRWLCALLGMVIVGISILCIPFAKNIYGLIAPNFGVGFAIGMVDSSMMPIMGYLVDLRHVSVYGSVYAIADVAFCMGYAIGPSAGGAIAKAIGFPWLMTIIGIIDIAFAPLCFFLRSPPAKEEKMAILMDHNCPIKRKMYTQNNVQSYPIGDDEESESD

Structure (SMILES) | Ki
c1ccc(CC[C@H]2CCC[C@@H](CCc3ccccc3)N2)cc1 | 43 nM
c1ccc(CC[C@@H]2C[C@H](CCc3ccccc3)N2)cc1 | 62 nM
COc1ccc(CC[C@@H]2C[C@H](CCc3ccc(OC)cc3)N2)cc1 | 24 nM
c1cc2c(cc1CC[C@@H]1C[C@H](CCc3ccc4c(c3)OCO4)N1)OCO2 | 55 nM
c1ccc(CC[C@@H]2C[C@@H](CCc3ccccc3)N2)cc1 (racemic) | 48 nM
COc1ccc(CC[C@@H]2C[C@@H](CCc3ccc(OC)cc3)N2)cc1 (racemic) | 66 nM
c1cc2c(cc1CC[C@@H]1C[C@@H](CCc3ccc4c(c3)OCO4)N1)OCO2 (racemic) | 31 nM
